Data on 34 compounds can be found in patent US7956074B2, “Aryl-isoxazolo-4-yl-oxadiazole derivatives” (Hoffman-La Roche Inc., priority 2005, dated 2011).

The assay has as its target T1, GABA A receptor α5β3γ2 (Homo sapiens, UniProt P18507+P31644).
T1 construct: expressed in transfected cells; host or cells: HEK293 cells, transiently transfected; membranes prepared
Put plainly: [3H]flumazenil competition binding, human GABA A α5β3γ2. Conditions: competition for [3H]flumazenil (0.5 nM) binding, HEK293 cells expressing human (transiently transfected) α5β3γ2; means of two determinations; read-out: Ki[nM] hα5. Here is the method: Membrane Preparation and Binding Assay
The affinity of compounds at GABA A receptor subtypes was measured by competition for [3H]flumazenil (85 Ci/mmol; Roche) binding to HEK293 cells expressing rat (stably transfected) or human (transiently transfected) receptors of composition
Cell pellets were suspended in Krebs-tris buffer (4.8 mM KCl, 1.2 mM CaCl2, 1.2 mM MgCl2, 120 mM NaCl, 15 mM Tris; pH 7.5; binding assay buffer), homogenized by polytron for ca. 20 sec on ice and centrifuged for 60 min at 4° C. (50000 g; Sorvall, rotor: SM24=20000 rpm). The cell pellets were resuspended in Krebs-tris buffer and homogenized by polytron for ca. 15 sec on ice. Protein was measured (Bradford method, Bio-Rad) and aliquots of 1 mL were prepared and stored at −80° C.
Assays were incubated to equilibrium for 1 hour at 4° C. and harvested onto GF/C uni-filters (Packard) by filtration using a Packard harvester and washing with ice-cold wash buffer (50 mM Tris; pH 7.5). After drying, filter-retained radioactivity was detected by liquid scintillation counting. Ki values were calculated using Excel-Fit (Microsoft) and are the means of two determinations.

For orientation: Ki means a dissociation constant, usually derived from enzyme kinetics or from competition with a known ligand. For the compound `Cc1onc(-c2ccccc2)c1-c1nnc(-c2ccc(S(C)(=O)=O)cc2)o1` [Example 30, 2-(4-Methanesulfonyl-phenyl)-5-(5-methyl-3-phenyl-isoxazol-4-yl)-[1,3,4]oxadiazole], the Ki amounted to 226 nM.

Consider `COC(=O)c1ccc(-c2nnc(-c3c(-c4ccccc4)noc3C)o2)cc1` [Example 71, 4-[5-(5-Methyl-3-phenyl-isoxazol-4-yl)-[1,3,4]oxadiazol-2-yl]-benzoic acid methyl ester], for which the Ki stood at 289 nM.

Regarding `COc1cc(N2CCOCC2)ccc1-c1nnc(-c2c(-c3cccc(Cl)c3)noc2C)o1` [Example 94, 4-(4-{5-[3-(3-Chloro-phenyl)-5-methyl-isoxazol-4-yl]-[1,3,4]oxadiazol-2-yl}-3-methoxy-phenyl)-morpholine], the Ki was found to be 19.3 nM.

For the compound `Cc1onc(-c2ccccc2)c1-c1nnc(-c2ccnc(Cl)c2)o1` [Example 54, 2-Chloro-4-[5-(5-methyl-3-phenyl-isoxazol-4-yl)-[1,3,4]oxadiazol-2-yl]-pyridine], the Ki was determined as 88.4 nM.

Turning to `Cc1onc(-c2ccccc2)c1-c1nnc(-c2cccc(F)c2F)o1` [Example 84, 2-(2,3-Difluoro-phenyl)-5-(5-methyl-3-phenyl-isoxazol-4-yl)-[1,3,4]oxadiazole], the Ki worked out at 225 nM.

Regarding “2-(4,5-Difluoro-2-methoxy-phenyl)-5-(5-methyl-3-phenyl-isoxazol-4-yl)-[1,3,4]oxadiazole [Example 87]”, the Ki came out at 43.8 nM.

Regarding `COc1cc(NC2CCOCC2)ccc1-c1nnc(-c2c(-c3ccccc3)noc2C2CC2)o1` [Example 82, {4-[5-(5-Cyclopropyl-3-phenyl-isoxazol-4-yl)-[1,3,4]oxadiazol-2-yl]-3-methoxy-phenyl}-(tetrahydro-pyran-4-yl)-amine], the Ki is 3.7 nM.

As to `Cc1onc(-c2ccccc2)c1-c1nnc(-c2ccc(N3CCC(F)(F)CC3)cc2)o1` [Example 112, 4,4-Difluoro-1-{4-[5-(5-methyl-3-phenyl-isoxazol-4-yl)-[1,3,4]oxadiazol-2-yl]-phenyl}-piperidine], the Ki was 31.2 nM.

`COc1cc(N2CCOCC2)ccc1-c1nnc(-c2c(-c3ccsc3)noc2C)o1` [Example 123, 4-{3-Methoxy-4-[5-(5-methyl-3-thiophen-3-yl-isoxazol-4-yl)-[1,3,4]oxadiazol-2-yl]-phenyl}-morpholine]: the Ki amounted to 14.4 nM.

For `Cc1onc(-c2ccccc2)c1-c1nnc(-c2ccc(N3CC[S+]([O-])CC3)cc2)o1` [Example 39, 4-{4-[5-(5-Methyl-3-phenyl-isoxazol-4-yl)-[1,3,4]oxadiazol-2-yl]-phenyl}-thiomorpholine 1-oxide], the Ki amounted to 16.7 nM.

In the case of `COCc1onc(-c2ccccc2)c1-c1nnc(-c2ccc(F)cc2OC)o1` [Example 91, 2-(4-Fluoro-2-methoxy-phenyl)-5-(5-methoxymethyl-3-phenyl-isoxazol-4-yl)-[1,3,4]oxadiazole], the Ki is 112 nM.

In the case of `Cc1onc(-c2ccccc2)c1-c1nnc(-c2cccc3cccnc23)o1` [Example 7, 8-[5-(5-Methyl-3-phenyl-isoxazol-4-yl)-[1,3,4]oxadiazol-2-yl]-quinoline], the Ki amounted to 40.6 nM.

On to `COCCNc1ccc(-c2nnc(-c3c(-c4ccccc4)noc3C)o2)c(OC)c1` [Example 124, (2-Methoxy-ethyl)-{3-methoxy-4-[5-(5-methyl-3-phenyl-isoxazol-4-yl)-[1,3,4]oxadiazol-2-yl]-phenyl}-amine], for which the Ki was found to be 8.2 nM.

In the case of `COc1cc(NCCO)c(F)cc1-c1nnc(-c2c(-c3ccccc3)noc2C)o1` [Example 129, 2-{2-Fluoro-5-methoxy-4-[5-(5-methyl-3-phenyl-isoxazol-4-yl)-[1,3,4]oxadiazol-2-yl]-phenylamino}-ethanol], the Ki was found to be 2.5 nM.

On to `CCc1onc(-c2ccccc2)c1-c1nnc(-c2ccc(F)cc2OC)o1` [Example 60, 2-(5-Ethyl-3-phenyl-isoxazol-4-yl)-5-(4-fluoro-2-methoxy-phenyl)-[1,3,4]oxadiazole], for which the Ki was determined as 96 nM.

With `COc1cc(N2CCOCC2)ccc1-c1nnc(-c2c(-c3ccccc3)noc2C#N)o1` [Example 115, 4-[5-(2-Methoxy-4-morpholin-4-yl-phenyl)-[1,3,4]oxadiazol-2-yl]-3-phenyl-isoxazole-5-carbonitrile], the Ki came to 131 nM.

For the compound `COc1cc(NS(=O)(=O)c2cccs2)ccc1-c1nnc(-c2c(-c3ccccc3)noc2C)o1` [Example 62, Thiophene-2-sulfonic acid {3-methoxy-4-[5-(5-methyl-3-phenyl-isoxazol-4-yl)-[1,3,4]oxadiazol-2-yl]-phenyl}-amide], the Ki turned out to be 42.8 nM.

Take `Cc1onc(-c2ccccc2)c1-c1nnc(-c2cc(F)c(N3CCSCC3)cc2F)o1` [Example 119, 4-{2,5-Difluoro-4-[5-(5-methyl-3-phenyl-isoxazol-4-yl)-[1,3,4]oxadiazol-2-yl]-phenyl}-thiomorpholine]: the inhibition constant (Ki) came out at 24.3 nM.

Take `Cc1onc(-c2ccccc2)c1-c1nnc(-c2ccc(F)cc2)o1` [Example 36, 2-(4-Fluoro-phenyl)-5-(5-methyl-3-phenyl-isoxazol-4-yl)-[1,3,4]oxadiazole]: the Ki was 134 nM.

As to `COc1cc(-n2nccn2)ccc1-c1nnc(-c2c(-c3ccccc3)noc2C)o1` [Example 85, 2-(2-Methoxy-4-[1,2,3]triazol-2-yl-phenyl)-5-(5-methyl-3-phenyl-isoxazol-4-yl)-[1,3,4]oxadiazole], the Ki came out at 20.6 nM.

Regarding `COc1cc(-n2ccnc2)ccc1-c1nnc(-c2c(-c3ccccc3)noc2C)o1` [Example 33, 2-(4-Imidazol-1-yl-2-methoxy-phenyl)-5-(5-methyl-3-phenyl-isoxazol-4-yl)-[1,3,4]oxadiazole], the Ki amounted to 7.5 nM.

Regarding `Cc1onc(-c2ccccc2)c1-c1nnc(-c2cccc(S(C)(=O)=O)c2)o1` [Example 31, 2-(3-Methanesulfonyl-phenyl)-5-(5-methyl-3-phenyl-isoxazol-4-yl)-[1,3,4]oxadiazole], the Ki amounted to 199 nM.

As for `Cc1onc(-c2ccccc2)c1-c1nnc(-c2ccc(C(=O)N3CCOCC3)cc2)o1` [Example 80, {4-[5-(5-Methyl-3-phenyl-isoxazol-4-yl)-[1,3,4]oxadiazol-2-yl]-phenyl}-morpholin-4-yl-methanone], the Ki came to 469 nM.

Take `Cc1onc(-c2ccccc2)c1-c1nnc(-c2ccc(C(=O)NC3CC3)cc2)o1` [Example 78, N-Cyclopropyl-4-[5-(5-methyl-3-phenyl-isoxazol-4-yl)-[1,3,4]oxadiazol-2-yl]-benzamide]: the Ki amounted to 42.1 nM.

Consider `COc1cc(N2CCS(=O)(=O)CC2)c(F)cc1-c1nnc(-c2c(-c3ccccc3)noc2C)o1` [Example 117, 4-{2-Fluoro-5-methoxy-4-[5-(5-methyl-3-phenyl-isoxazol-4-yl)-[1,3,4]oxadiazol-2-yl]-phenyl}-thiomorpholine 1,1-dioxide], for which the Ki is 2 nM.

With `COc1ccc(OC)c(-c2nnc(-c3c(-c4ccccc4)noc3C)o2)c1` [Example 15, 2-(2,5-Dimethoxy-phenyl)-5-(5-methyl-3-phenyl-isoxazol-4-yl)-[1,3,4]oxadiazole], the Ki came to 14.8 nM.

Turning to `COc1cc(NC(C)=O)ccc1-c1nnc(-c2c(-c3ccccc3)noc2C)o1` [Example 89, N-{3-Methoxy-4-[5-(5-methyl-3-phenyl-isoxazol-4-yl)-[1,3,4]oxadiazol-2-yl]-phenyl}-acetamide], the inhibition constant Ki was 4.6 nM.

For `COc1cc(N2CCN(C)CC2)ccc1-c1nnc(-c2c(-c3ccccc3)noc2C)o1` [Example 67, 1-{3-Methoxy-4-[5-(5-methyl-3-phenyl-isoxazol-4-yl)-[1,3,4]oxadiazol-2-yl]-phenyl}-4-methyl-piperazine], the Ki was determined as 15.5 nM.

Turning to `Cc1onc(-c2ccccc2)c1-c1nnc(-c2ccc(NCCO)nc2)o1` [Example 137, 2-{5-[5-(5-Methyl-3-phenyl-isoxazol-4-yl)-[1,3,4]oxadiazol-2-yl]-pyridin-2-ylamino}-ethanol], the Ki worked out at 24.5 nM.

With `Cc1onc(-c2ccccc2)c1-c1nnc(-c2ccc(N3CCC(O)CC3)nc2)o1` [Example 140, 5′-[5-(5-Methyl-3-phenyl-isoxazol-4-yl)-[1,3,4]oxadiazol-2-yl]-3,4,5,6-tetrahydro-2H-[1,2′]bipyridinyl-4-ol], the Ki worked out at 23.5 nM.

Turning to `Cc1onc(-c2ccccc2)c1-c1nnc(-c2ccsc2)o1` [Example 122, 2-(5-Methyl-3-phenyl-isoxazol-4-yl)-5-thiophen-3-yl-[1,3,4]oxadiazole], the Ki is 139 nM.

In the case of `COc1cc(N2CCOCC2)ccc1-c1nnc(-c2c(-c3ccccc3)noc2N(C)C)o1` [Example 106, {4-[5-(2-Methoxy-4-morpholin-4-yl-phenyl)-[1,3,4]oxadiazol-2-yl]-3-phenyl-isoxazol-5-yl}-dimethyl-amine], the Ki was 165 nM.

As for `COc1cc(N(C)C(=O)C2CC2)ccc1-c1nnc(-c2c(-c3ccccc3)noc2C)o1` [Example 17, Cyclopropanecarboxylic acid {3-methoxy-4-[5-(5-methyl-3-phenyl-isoxazol-4-yl)-[1,3,4]oxadiazol-2-yl]-phenyl}-methyl-amide], the Ki came out at 48.8 nM.

For the compound `COc1cc(NC(=O)c2ccsc2)ccc1-c1nnc(-c2c(-c3ccccc3)noc2C)o1` [Example 23, Thiophene-3-carboxylic acid-{3-methoxy-4-[5-(5-methyl-3-phenyl-isoxazol-4-yl)-[1,3,4]oxadiazol-2-yl]-phenyl}-amide], the Ki was 18.3 nM.
